Values after ≈ are worked out from the molar mass of the structure shown.
What was measured:
HIV-1 (NL4.3 WT) = assay: Inhibition of HIV-induced cytopathogenic effect in MT-4 cells (MTT), HIV-1; format: cell-based; settings: for HIV-1 (NL4.3 WT) IC50 / IC50: 50% protection against HIV-induced cytopathogenic effect, MT-4 cells, MTT; for HIV-1 (NL4.3 WT) SI: selectivity index = ratio of CC50 to IC50, HIV-1; for IC50: Human immunodeficiency virus 1, MT4
Method: (§1) A rapid and automated assay procedure was used for the in vitro evaluation of anti-HIV agents. An HTLV-1 transformed T4-cell line MT-4, which was previously shown to be highly susceptible to and permissive for HIV infection, served as the target cell line. Inhibition of the HIV-induced cytopathogenic effect was used as the end point. The viabitlity of both HIV-and mock-infected cells was assessed spectrophotometrically via in situ reduction of 3-(4,5-dimethylthiazol-2-yl)-2,5-diphenyltetrazolium bromide (MTT). The 50% cytotoxic concentration (CC50 in μg/ml) was defined as the concentration of compound that reduced the absorbance of the mock-infected control sample by 50%. The percent protection achieved by the compound in HIV-infected cells was calculated by the following formula:
(§2) [formula] whereby (ODT)HIV is the optical density measured with a given concentration of the test compound in HIV-infected cells; (ODC)HIV is the optical density measured for the control untreated HIV-infected cells; (ODC)MOCK is the optical density measured for the control untreated mock-infected cells; all optical density values were determined at 540 nm. The dose achieving 50% protection according to the above formula was defmed as the 50% inhibitory concentration (IC50 in μg/ml). The ratio of CC50 to IC50 was defined as the selectivity index (SI).
(§3) Cells: MT-4 cells (Miyoshi et al., 1982) were grown and maintained in RPMI 1640 medium supplemented with 10% heat-inactivated fetal calf serum, 2 mM 1-glutamine, 0.1% sodium bicarbonate, and 20 œg of gentamicin per ml.
(§4) Viruses: The HIV-1(NL4.3) strain (Adachi et al., 1986) is a molecular clone obtained from the National Institutes of Health (Bethesda, Md.). The HIV-2(ROD) (Barr,-Sinoussi et al., 1983) stock was obtained from culture supernatant of HIV-2 infected cell lines.

HIV-2 (ROD) = assay: Inhibition of HIV-induced cytopathogenic effect in MT-4 cells (MTT), HIV-2; format: cell-based; settings: for HIV-2 (ROD) IC50 / IC50: 50% protection against HIV-induced cytopathogenic effect, MT-4 cells, MTT; for HIV-2 (ROD) SI: selectivity index = ratio of CC50 to IC50, HIV-2; for IC50: Human immunodeficiency virus 2, MT4
Method: as §1, §2, §3, §4

MT-4 cells = assay: Cytotoxicity in mock-infected MT-4 cells (MTT); format: cell-based
Method: as §1, with “formula: Examples of inhibition of cell proliferation by particular compounds of formula (I) can be found by looking at the respective CC50 values in the MT-4 cell line. Cells: MT-4 cells (Miyoshi et al., 1982) were grown and maintained in RPMI 1640 medium supplemented with 10% heat-inactivated fetal calf serum, 2 mM […], 0.1% sodium bicarbonate, and 20 œg of gentamicin per ml.” for “formula:”

[1] = Cytotoxicity in mock-infected MT-4 cells (MTT); format: cell-based; settings: human; mock-infected MT-4 cells, absorbance reduced by 50%, MTT
Method: as §1, with “formula: Examples of inhibition of cell proliferation by particular compounds of formula (I) can be found by looking at the respective CC50 values in the MT-4 cell line. Cells: MT-4 cells (Miyoshi et al., 1982) were grown and maintained in RPMI 1640 medium supplemented with 10% heat-inactivated fetal calf serum, 2 mM […], 0.1% sodium bicarbonate, and 20 œg of gentamicin per ml.” for “formula:”

HIV-1 (NL4.3 WT) IC50 (HIV-1 (NL4.3 WT)) [µg/mL] | HIV-2 (ROD) IC50 (HIV-2 (ROD)) [µg/mL] | IC50 (HIV-1 (NL4.3 WT)) [µg/mL] | IC50 (HIV-2 (ROD)) [µg/mL] | melting point [°C] | Compound | HIV-1 (NL4.3 WT) SI (HIV-1 (NL4.3 WT)) | HIV-2 (ROD) SI (HIV-2 (ROD)) | cytotoxicity CC50 (MT-4 cells) [µg/mL] | CC50 [1] [µg/mL]
3.1 | >12.3 |  |  |  | COc1cccc(Nn2c(-c3ccccc3)c(C)[nH]c2=S)c1 [Compound 9.31] | 4.0 | <1 | 12.3 | 
13.8 | >32.1 |  |  |  | Cc1[nH]c(=S)n(Nc2cccc(Cl)c2)c1-c1cccc(C#N)c1 [Compound 9.32, 1-(3-Chlorphenylamino)-5-(3-cyanophenyl)-2,3-dihydro-4-methyl-1H-imidazole-2-thione] | 2.3 | <1 | 32.1 | 
 |  | 3.9 (≈ 12.6 µM) | > 19.8 | 202 to 204 | CCc1[nH]c(=S)n(Nc2cccc(C)c2)c1-c1ccccc1 [Compound 9.25, 2,3-Dihydro-4-ethyl-1-(3-methylphenylamino)-5-phenyl-1H-imidazole-2-thione] | 5.0 | <1 |  | 19.8 (≈ 64 µM)
 |  | 7.4 (≈ 23.4 µM) | > 65 | 220 to 221 | Cc1[nH]c(=S)n(Nc2ccccc2Cl)c1-c1ccccc1 [Compound 9.02, 1-(2-Chlorophenylamino)-2,3-dihydro-4-methyl-5-phenyl-1H-imidazole-2-thione] | 9.0 | <1 |  | 65 (≈ 206 µM)
 |  | 0.9 (≈ 2.57 µM) | 1.4 (≈ 4 µM) | 204 | Cc1[nH]c(=S)n(Nc2cccc(Cl)c2)c1-c1cccc(Cl)c1 [Compound 9.07, 5-(3-Chlorophenyl)-1-(3-chlorophenylamino)-2,3-dihydro-4-methyl-1H-imidazole-2-thione] | 18.3 | 11.6 |  | 15.9 (≈ 45.4 µM)
 |  | 3.7 (≈ 11.3 µM) | > 15.4 | 214 | Cc1[nH]c(=S)n(Nc2cccc([N+](=O)[O-])c2)c1-c1ccccc1 [Compound 9.17, 2,3-Dihydro-4-methyl-1-(3-nitrophenylamino)-5-phenyl-1H-imidazole-2-thione] | 4.2 | <1 |  | 15.4 (≈ 47.2 µM)
 |  | 0.3 (≈ 0.969 µM) | > 65.3 | 240 to 242 | Cc1cc(C)cc(Nn2c(-c3ccccc3)c(C)[nH]c2=S)c1 [Compound 9.30, 2,3-Dihydro-1-(3,5-dimethylphenylamino)-4-methyl-5-phenyl-1H-imidazole-2-thione] | 241.9 | <1 |  | 65.3 (≈ 211 µM)
 |  | 1.4 (≈ 5.32 µM) | > 7.6 | 159 | Cc1cccc(Nn2cnc(C)c2-c2ccccc2)c1 [Compound 13.09, 4-Methyl-1-(3-methylphenylamino)-5-phenyl-1H-imidazole] | 5.6 | <1 |  | 7.6 (≈ 28.9 µM)
 |  | 5.2 (≈ 18.5 µM) | > 14.7 | 224 to 226 | Cc1[nH]c(=S)n(Nc2ccccc2)c1-c1ccccc1 [Compound 9.12, 2,3-Dihydro-4-methyl-5-phenyl-1-(phenylamino)-1H-imidazole-2-thione] | 2.8 | <1 |  | 14.7 (≈ 52.2 µM)
 |  | 5.5 (≈ 18.4 µM) | > 47.3 | 226 | Cc1[nH]c(=S)n(Nc2cccc(F)c2)c1-c1ccccc1 [Compound 9.18, 2,3-Dihydro-1-(3-fluorophenylamino)-4-methyl-5-phenyl-1H-imidazole-2-thione] | 8.6 | <1 |  | 47.3 (≈ 158 µM)
 |  | 0.6 (≈ 2.03 µM) | > 20.7 | 206 | Cc1cccc(Nn2c(-c3ccccc3)c(C)[nH]c2=S)c1 [Compound 9.19, 2,3-Dihydro-4-methyl-1-(3-methylphenylamino)-5-phenyl-1H-imidazole-2-thione] | 32.3 | <1 |  | 20.7 (≈ 70.1 µM)
 |  | 1.6 (≈ 4.44 µM) | > 17.1 | 190 | Cc1[nH]c(=S)n(Nc2cccc(Br)c2)c1-c1ccccc1 [Compound 9.14, 1-(3-Bromophenylamino)-2,3-dihydro-4-methyl-5-phenyl-1H-imidazole-2-thione] | 10.5 | <1 |  | 17.1 (≈ 47.5 µM)
 |  | 0.2 (≈ 0.629 µM) | 0.23 (≈ 0.723 µM) | 168 | Cc1ncn(Nc2cccc(Cl)c2)c1-c1cccc(Cl)c1 [Compound 13.03, 5-(3-Chlorophenyl)-1-(3-chlorophenylamino)-4-methyl-1H-imidazole] | 73.5 | 63.8 |  | 14.7 (≈ 46.2 µM)
 |  | 3.6 (≈ 10.9 µM) | > 16.9 | 190 | Cc1ccc(Nn2c(-c3ccccc3)c(C)[nH]c2=S)cc1Cl [Compound 9.15, 1-(3-Chloro-4-methylphenylamino)-2,3-dihydro-4-methyl-5-phenyl-1H-imidazole-2-thione] | 4.7 | <1 |  | 16.9 (≈ 51.2 µM)
3.4 | >10.9 |  |  |  | Cc1ncn(Nc2cccc(Cl)c2)c1-c1cccc(C#N)c1 [Compound 13.15, 1-(3-Chlorphenylamino)-5-(3-cyanophenyl)-4-methyl-1H-imidazole] | 3.2 | <1 | 10.9 | 
